In patent publication US20160120825A1 (TIANJIN TAIPU PHARMACEUTICAL SCIENCE & TECHNOLOGY …, priority 2013, published 2016):
Like-named read-outs stand apart in the source and are kept apart here.

Legend:
[1] = tested on: brain nerve cells (hippocampal ventral dentate gyrus); conditions: adult rat, cited from earlier work
[2] = change of crystalline X-form raw material in pulverization, grinding, tabletting detected by DSC; format: physicochemical
Text: Change of the crystalline X-form raw material in pulverization, grinding, and tabletting (at a pressure of 10 kg) was detected by DSC (see FIGS. 1-4).

[3] = solubility of crystalline X-form agomelatine in solvents; format: physicochemical
[4] = stability in the process (DSC crystal form purity, HPLC relevant substances); format: physicochemical; conditions: during formulation process
Text: (§1) Referring to the aforementioned test 6, tablets were manufactured according to formulation and process with hydroxyproplyl methyl cellulose and polyvinylpyrrolindone k30 in a concentration of 15% as a protective agent.
Crystal form purity of the tablets was detected using DSC method with crystal forms and relevant substances as evaluation indexes. Regarding detection of relevant substances, HPLC method was adopted using imported drug as a standard.

[5] = test on influencing factors; format: physicochemical
Method: as §1
We investigated in combination with formulations of the present invention: the samples were allowed to stand in an open state for 30 days under the conditions of a high temperature of 60° C., a high humidity of RH 92%, and both high temperature and high humidity (40° C., RH75%), respectively. The results are as follows: Test results on influencing factors (%)

X-form crystal purity (%) detected by DSC ([2]; after grinding) | X-form crystal purity (%) detected by DSC ([2]; after pulverization) | X-form crystal purity (%) detected by DSC ([2]; after tabletting (pressure of 10 kg)) | X-form crystal purity (%) detected by DSC ([2]; untreated crystalline X-form) | solubility ([3]; in methanol, ethanol, acetonitrile, DMSO, etc.) | solubility ([3]; in water) | Crystal form purity ([4]; DSC) | Relevant substances ([4]; HPLC) | Crystal form purity % ([5]; 0 day) | Crystal form purity % ([5]; 10 days at a high humidity (RH 92%), open state) | Crystal form purity % ([5]; 10 days at a high temperature (60° C.), open state) | Crystal form purity % ([5]; 10 days at both high temperature and high humidity (40° C., RH75%), open state) | SMILES | cell proliferation and neuronal regeneration in hippocampal ventral dentate gyrus ([1]; acute or subacute administration (4 hours or nine weeks)) | cell proliferation and neuronal regeneration in hippocampal ventral dentate gyrus ([1]; long-term (three weeks) administration)
 |  |  |  |  |  |  |  |  |  |  |  | COc1ccc2cccc(CCNC(C)=O)c2c1 [Agomelatine, agomelatine] | no similar situation occurred | could increase cell proliferation and neuronal regeneration
75.1% | 79.4% | 57.7% | 100% | very soluble | almost insoluble | 100 | 0.42% | 100% | 85% | 68% | 57% | COc1ccc2cccc(CCNC(C)=O)c2c1 [agomelatine] |  | 
